Test results: US20120190814A1, “Thiol Protecting Group” (UCL BUSINESS PLC, priority 2009, published 2012)

Tested on: GIRK currents
Assay: patch clamp assay, control treatment with Pertussis toxin or GIRK inhibitor
Format: cell-based, human
Details: Tertiapin 100 nM, pertussis toxin 100 ng/ml overnight
Experimental: HEK 293 cells expressing HKIR3.1/3.2 channel and human somatostatin receptor 2 were treated with these compounds, and whole cell patch-clamp current recordings taken.
Whole cell patch-clamp current recordings were performed with an Axopatch 200B amplifier (Axon Instruments) using fire-polished pipettes with a resistance of 3-4 MΩ pulled from filamented borosilicated glass capillaries (Harvard Apparatus, 1.5 mm OD×1.17 mm ID). Data was acquired and analysed via a Digidata 1322A interface (Axon Instruments) and pCLAMP software (version 8.1, Axon Instruments). A fast perfusion system was used to apply somatostatin and analogues (Rapid Solution Changer, RSC-160, Bio-Logic France). Cells were clamped at −60 mV. The extracellular solution was (mM): NaCl 80, KCl 60, CaCl22, MgCl21, HEPES 10, NaH2PO4 0.33, glucose 10, pH 7.4; while the intracellular solution was (mM): K gluconate 110, KCl 20, NaCl 10, MgCl2 1, MgATP 2, EGTA 2 GTP 0.3, pH 7.4. After agonist application, current activated with a delay “lag” followed by a rapid rise to peak amplitude “time to peak”. After removal of the agonist, the current decays back to baseline. For each cell it was assessed if flow artifacts resulting from the pressure of drug application were present. This was done by applying bath solution from one of the sewer pipes at the beginning of the recordings. […]

Row | Substance | GIRK currents when cells were treated with control inhibitor
1 | Pertussis toxin | currents were largely inhibited
2 | Tertiapin Q | currents were largely inhibited
